Calls of active or inactive are those of the source. No cut-off for these calls is given here.
How the values were obtained:
[1] = molecular target: T1, RAC-alpha serine/threonine-protein kinase (Homo sapiens, UniProt P31749); experiment: Inhibition of AKT1 (unknown origin) using biotin-labelled STK as substrate measured after 45 mins by HTRF method
[2] = molecular target: T1, RAC-alpha serine/threonine-protein kinase; experiment: Inhibition of AKT1 (unknown origin) at 1 uM using biotin-labelled STK as substrate measured after 45 mins by HTRF method relative to control
[3] = molecular target: MAP kinase-interacting serine/threonine-protein kinase 1 (Homo sapiens) (UniProt Q9BUB5); experiment: Inhibition of MNK1 (unknown origin) at 1 uM after 40 mins by scintillation counting method relative to control
Homo sapiens [4] = species: Homo sapiens; experiment: Inhibition of PKA (unknown origin) at 1 uM after 40 mins by scintillation counting method relative to control
[5] = molecular target: Tyrosine-protein kinase ABL1 (Homo sapiens) (UniProt P00519); experiment: Inhibition of ABL (unknown origin) at 1 uM after 40 mins by scintillation counting method relative to control
[6] = molecular target: Serine/threonine-protein kinase B-raf (Homo sapiens) (UniProt P15056); experiment: Inhibition of BRAF (unknown origin) at 1 uM after 40 mins by scintillation counting method relative to control
[7] = molecular target: Glycogen synthase kinase-3 beta (Homo sapiens) (UniProt P49841); experiment: Inhibition of GSK3beta (unknown origin) at 1 uM after 40 mins by scintillation counting method relative to control
[8] = molecular target: Tyrosine-protein kinase JAK1 (Homo sapiens) (UniProt P23458); experiment: Inhibition of JAK1 (unknown origin) at 1 uM after 40 mins by scintillation counting method relative to control
[9] = molecular target: RAF proto-oncogene serine/threonine-protein kinase (Homo sapiens) (UniProt P04049); experiment: Inhibition of RAF1 (unknown origin) at 1 uM after 40 mins by scintillation counting method relative to control
[10] = molecular target: T2, Serine/threonine-protein kinase Chk1 (Homo sapiens) (UniProt O14757); experiment: Inhibition of CHK1 (unknown origin) at 1 uM after 40 mins by scintillation counting method relative to control
T2 sequence (whole entry): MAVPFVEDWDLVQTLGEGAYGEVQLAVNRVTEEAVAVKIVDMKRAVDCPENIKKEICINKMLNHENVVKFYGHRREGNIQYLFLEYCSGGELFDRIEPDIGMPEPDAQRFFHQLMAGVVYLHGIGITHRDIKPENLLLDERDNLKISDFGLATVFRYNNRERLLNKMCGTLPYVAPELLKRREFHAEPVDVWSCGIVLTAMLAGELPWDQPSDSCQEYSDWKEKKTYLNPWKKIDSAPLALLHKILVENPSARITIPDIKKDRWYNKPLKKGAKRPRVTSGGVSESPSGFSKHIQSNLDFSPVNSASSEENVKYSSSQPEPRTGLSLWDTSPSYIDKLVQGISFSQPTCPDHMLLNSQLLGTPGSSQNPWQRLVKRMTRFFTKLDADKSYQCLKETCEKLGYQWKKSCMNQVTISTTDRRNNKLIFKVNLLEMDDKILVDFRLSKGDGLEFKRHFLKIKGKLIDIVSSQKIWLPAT

[11] = molecular target: T1, RAC-alpha serine/threonine-protein kinase; experiment: Inhibition of AKT1 (unknown origin) at 10 nM after 40 mins by scintillation counting method relative to control
[12] = molecular target: RAC-beta serine/threonine-protein kinase (Homo sapiens) (UniProt P31751); experiment: Inhibition of AKT2 (unknown origin) at 10 nM after 40 mins by scintillation counting method relative to control
[13] = molecular target: RAC-gamma serine/threonine-protein kinase (Homo sapiens) (UniProt Q9Y243); experiment: Inhibition of AKT3 (unknown origin) at 10 nM after 40 mins by scintillation counting method relative to control
Homo sapiens [14] = species: Homo sapiens; experiment: Selectivity ratio of compound effect for inhibition of AKT1 (unknown origin) to compound effect for inhibition of AKT2 (unknown origin)
Homo sapiens [15] = species: Homo sapiens; experiment: Selectivity ratio of compound effect for inhibition of AKT3 (unknown origin) to compound effect for inhibition of AKT2 (unknown origin)
[16] = molecular target: T1, RAC-alpha serine/threonine-protein kinase; experiment: Inhibition of AKT phosphorylation in human PC3 cells at 1 to 10 uM after 4 hrs by Western blot analysis; assay type: cell-based
[17] = molecular target: T1, RAC-alpha serine/threonine-protein kinase; experiment: Inhibition of AKT in human PC3 cells assessed as reduction in GSK3beta phosphorylation at 1 to 10 uM after 4 hrs by Western blot analysis; assay type: cell-based
PC-3 [18] = experiment: Induction of apoptosis in human PC3 cells assessed as live cells at 1 uM after 48 hrs by Annexin V-FITC/propidium iodide staining based flow cytometry (reference value: 97.19%); assay type: functional
PC-3 [19] = experiment: Induction of apoptosis in human PC3 cells assessed as early apoptotic cells at 1 uM after 48 hrs by Annexin V-FITC/propidium iodide staining based flow cytometry (reference value: 1.05%); assay type: functional
PC-3 [20] = experiment: Induction of apoptosis in human PC3 cells assessed as late apoptotic cells at 1 uM after 48 hrs by Annexin V-FITC/propidium iodide staining based flow cytometry (reference value: 0.27%); assay type: functional
PC-3 [21] = experiment: Induction of apoptosis in human PC3 cells assessed as necrotic cells at 1 uM after 48 hrs by Annexin V-FITC/propidium iodide staining based flow cytometry (reference value: 1.48%); assay type: functional
PC-3 [22] = experiment: Induction of apoptosis in human PC3 cells assessed as early apoptotic cells at 5 uM after 48 hrs by Annexin V-FITC/propidium iodide staining based flow cytometry (reference value: 1.05%); assay type: functional
PC-3 [23] = experiment: Induction of apoptosis in human PC3 cells assessed as late apoptotic cells at 5 uM after 48 hrs by Annexin V-FITC/propidium iodide staining based flow cytometry (reference value: 0.27%); assay type: functional
PC-3 [24] = experiment: Induction of apoptosis in human PC3 cells assessed as necrotic cells at 5 uM after 48 hrs by Annexin V-FITC/propidium iodide staining based flow cytometry (reference value: 1.48%); assay type: functional
PC-3 [25] = experiment: Induction of apoptosis in human PC3 cells assessed as live cells at 10 uM after 48 hrs by Annexin V-FITC/propidium iodide staining based flow cytometry (reference value: 97.19%); assay type: functional
PC-3 [26] = experiment: Induction of apoptosis in human PC3 cells assessed as early apoptotic cells at 10 uM after 48 hrs by Annexin V-FITC/propidium iodide staining based flow cytometry (reference value: 1.05%); assay type: functional
PC-3 [27] = experiment: Induction of apoptosis in human PC3 cells assessed as late apoptotic cells at 10 uM after 48 hrs by Annexin V-FITC/propidium iodide staining based flow cytometry (reference value: 0.27%); assay type: functional
PC-3 [28] = experiment: Induction of apoptosis in human PC3 cells assessed as necrotic cells at 10 uM after 48 hrs by Annexin V-FITC/propidium iodide staining based flow cytometry (reference value: 1.48%); assay type: functional
in vitro [29] = experiment: in vitro; parameters: dose or concentration left out as unconfirmed; conditions: human, liver microsomes
Description: Half life in human liver microsomes at 10 mM preincubated for 10 mins followed by NADPH addition by LC-MS analysis

in vitro [30] = experiment: in vitro; parameters: dose or concentration left out as unconfirmed; conditions: human, liver microsomes; remark: listed apart in the source
Description: Intrinsic clearance in human liver microsomes at 10 mM preincubated for 10 mins followed by NADPH addition and measured after 5 to 60 mins by LC-MS analysis

in vitro [31] = experiment: in vitro; parameters: dose or concentration left out as unconfirmed; conditions: human, liver microsomes; remark: listed apart in the source
Description: Stability in human liver microsomes assessed as parent compound remaining at 10 mM preincubated for 10 mins followed by NADPH addition and measured after 60 mins by LC-MS analysis

T1 sequence (P31749 whole entry): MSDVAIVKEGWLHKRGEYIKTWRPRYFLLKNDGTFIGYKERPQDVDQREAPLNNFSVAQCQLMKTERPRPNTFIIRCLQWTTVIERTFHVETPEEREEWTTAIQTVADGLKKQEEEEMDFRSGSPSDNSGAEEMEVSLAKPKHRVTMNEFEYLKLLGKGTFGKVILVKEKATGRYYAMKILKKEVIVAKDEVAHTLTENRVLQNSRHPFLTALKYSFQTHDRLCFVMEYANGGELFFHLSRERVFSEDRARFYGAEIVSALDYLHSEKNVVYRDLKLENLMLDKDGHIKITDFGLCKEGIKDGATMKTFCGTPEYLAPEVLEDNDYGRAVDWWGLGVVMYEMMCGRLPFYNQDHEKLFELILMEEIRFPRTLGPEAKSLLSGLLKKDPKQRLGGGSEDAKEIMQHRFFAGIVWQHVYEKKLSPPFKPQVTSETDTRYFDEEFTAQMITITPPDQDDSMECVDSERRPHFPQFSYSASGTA
Chain of RAF proto-oncogene serine/threonine-protein kinase (Homo sapiens) (P04049 whole entry): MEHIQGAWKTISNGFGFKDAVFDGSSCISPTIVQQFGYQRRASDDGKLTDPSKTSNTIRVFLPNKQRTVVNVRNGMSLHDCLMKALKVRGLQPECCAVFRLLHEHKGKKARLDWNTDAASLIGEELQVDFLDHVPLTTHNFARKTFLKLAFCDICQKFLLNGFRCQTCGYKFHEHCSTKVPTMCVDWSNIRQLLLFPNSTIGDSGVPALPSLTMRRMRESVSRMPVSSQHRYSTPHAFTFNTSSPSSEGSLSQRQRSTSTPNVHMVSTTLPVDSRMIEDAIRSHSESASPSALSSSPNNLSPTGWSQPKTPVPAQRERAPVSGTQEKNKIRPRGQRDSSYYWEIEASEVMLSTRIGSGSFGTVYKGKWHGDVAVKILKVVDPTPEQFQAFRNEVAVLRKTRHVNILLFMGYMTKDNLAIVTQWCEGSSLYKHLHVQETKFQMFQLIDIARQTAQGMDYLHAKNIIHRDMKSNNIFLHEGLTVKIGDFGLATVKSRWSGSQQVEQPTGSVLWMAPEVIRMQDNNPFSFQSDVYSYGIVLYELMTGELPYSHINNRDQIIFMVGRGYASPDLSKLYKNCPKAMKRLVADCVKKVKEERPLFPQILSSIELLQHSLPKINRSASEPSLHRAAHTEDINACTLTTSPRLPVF
Chain of RAC-gamma serine/threonine-protein kinase (Homo sapiens) (Q9Y243 whole entry): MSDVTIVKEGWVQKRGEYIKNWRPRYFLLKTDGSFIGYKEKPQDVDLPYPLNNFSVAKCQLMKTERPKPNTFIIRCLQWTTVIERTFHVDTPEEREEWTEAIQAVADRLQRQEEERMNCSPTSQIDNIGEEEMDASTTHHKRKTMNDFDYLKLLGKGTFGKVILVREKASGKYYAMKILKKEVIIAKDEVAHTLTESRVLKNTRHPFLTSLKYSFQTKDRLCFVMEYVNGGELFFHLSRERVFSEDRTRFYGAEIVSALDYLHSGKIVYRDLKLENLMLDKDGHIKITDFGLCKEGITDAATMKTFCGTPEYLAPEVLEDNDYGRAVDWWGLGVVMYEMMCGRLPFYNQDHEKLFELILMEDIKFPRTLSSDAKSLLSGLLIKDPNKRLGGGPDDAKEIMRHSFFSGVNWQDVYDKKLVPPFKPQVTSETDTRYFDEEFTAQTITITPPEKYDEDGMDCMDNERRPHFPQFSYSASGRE
Chain of Glycogen synthase kinase-3 beta (Homo sapiens) (P49841 whole entry, looked up): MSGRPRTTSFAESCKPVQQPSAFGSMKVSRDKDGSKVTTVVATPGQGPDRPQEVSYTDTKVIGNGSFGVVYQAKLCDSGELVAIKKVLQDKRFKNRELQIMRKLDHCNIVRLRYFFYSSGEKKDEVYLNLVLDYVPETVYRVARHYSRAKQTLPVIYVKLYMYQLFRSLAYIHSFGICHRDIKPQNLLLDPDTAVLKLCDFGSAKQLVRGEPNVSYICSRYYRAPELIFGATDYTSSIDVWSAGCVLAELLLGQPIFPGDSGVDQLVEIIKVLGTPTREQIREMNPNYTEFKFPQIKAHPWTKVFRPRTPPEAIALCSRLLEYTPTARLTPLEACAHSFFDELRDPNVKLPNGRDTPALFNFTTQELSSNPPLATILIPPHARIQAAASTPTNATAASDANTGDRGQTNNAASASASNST
Chain of Serine/threonine-protein kinase B-raf (Homo sapiens) (P15056 whole entry): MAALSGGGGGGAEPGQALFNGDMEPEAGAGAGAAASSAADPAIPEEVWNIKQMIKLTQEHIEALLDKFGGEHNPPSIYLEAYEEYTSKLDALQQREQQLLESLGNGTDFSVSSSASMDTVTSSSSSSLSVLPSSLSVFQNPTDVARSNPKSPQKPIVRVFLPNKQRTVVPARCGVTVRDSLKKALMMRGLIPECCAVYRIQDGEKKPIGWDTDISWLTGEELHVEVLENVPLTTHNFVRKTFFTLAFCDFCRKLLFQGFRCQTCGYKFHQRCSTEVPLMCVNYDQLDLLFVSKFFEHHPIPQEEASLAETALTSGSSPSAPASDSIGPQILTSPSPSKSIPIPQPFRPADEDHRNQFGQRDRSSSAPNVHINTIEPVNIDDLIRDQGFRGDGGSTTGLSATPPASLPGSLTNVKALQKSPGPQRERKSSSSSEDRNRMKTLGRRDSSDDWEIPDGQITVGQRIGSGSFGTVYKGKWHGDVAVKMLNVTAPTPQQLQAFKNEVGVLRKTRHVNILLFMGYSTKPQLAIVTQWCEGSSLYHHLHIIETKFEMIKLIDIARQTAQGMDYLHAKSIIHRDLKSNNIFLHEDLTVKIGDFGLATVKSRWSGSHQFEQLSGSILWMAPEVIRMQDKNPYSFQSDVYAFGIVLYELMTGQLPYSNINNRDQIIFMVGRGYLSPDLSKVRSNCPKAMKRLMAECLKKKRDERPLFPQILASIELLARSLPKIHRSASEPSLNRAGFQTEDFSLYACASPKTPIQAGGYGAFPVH
Chain of Tyrosine-protein kinase JAK1 (Homo sapiens) (P23458 whole entry): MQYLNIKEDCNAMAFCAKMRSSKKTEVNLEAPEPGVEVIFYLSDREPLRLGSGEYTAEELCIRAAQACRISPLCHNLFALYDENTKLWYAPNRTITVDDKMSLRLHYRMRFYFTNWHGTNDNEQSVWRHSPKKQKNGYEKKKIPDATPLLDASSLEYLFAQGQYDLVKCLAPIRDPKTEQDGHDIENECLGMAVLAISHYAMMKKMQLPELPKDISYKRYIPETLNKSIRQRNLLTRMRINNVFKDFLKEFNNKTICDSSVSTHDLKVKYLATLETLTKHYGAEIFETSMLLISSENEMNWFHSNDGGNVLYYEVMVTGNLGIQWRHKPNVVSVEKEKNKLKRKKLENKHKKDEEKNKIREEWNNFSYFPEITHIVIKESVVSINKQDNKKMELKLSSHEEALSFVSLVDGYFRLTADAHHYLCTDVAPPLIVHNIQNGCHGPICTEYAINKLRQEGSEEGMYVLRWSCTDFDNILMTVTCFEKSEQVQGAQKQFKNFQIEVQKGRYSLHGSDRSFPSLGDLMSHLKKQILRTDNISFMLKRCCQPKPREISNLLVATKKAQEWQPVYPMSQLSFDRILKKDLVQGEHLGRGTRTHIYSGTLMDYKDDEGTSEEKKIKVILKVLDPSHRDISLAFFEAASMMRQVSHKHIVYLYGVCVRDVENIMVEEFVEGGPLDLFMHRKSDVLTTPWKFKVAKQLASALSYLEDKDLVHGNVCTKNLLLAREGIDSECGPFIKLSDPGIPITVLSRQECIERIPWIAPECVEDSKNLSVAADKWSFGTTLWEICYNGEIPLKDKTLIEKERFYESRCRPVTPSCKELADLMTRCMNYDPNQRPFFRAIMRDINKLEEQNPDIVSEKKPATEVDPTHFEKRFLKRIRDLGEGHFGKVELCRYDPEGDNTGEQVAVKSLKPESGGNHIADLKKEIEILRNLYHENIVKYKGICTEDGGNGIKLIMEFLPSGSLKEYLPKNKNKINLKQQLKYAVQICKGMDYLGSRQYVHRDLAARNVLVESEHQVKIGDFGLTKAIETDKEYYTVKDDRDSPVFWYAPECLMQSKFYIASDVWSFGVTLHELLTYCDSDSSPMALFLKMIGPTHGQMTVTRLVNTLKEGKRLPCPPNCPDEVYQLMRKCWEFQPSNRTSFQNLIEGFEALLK
Chain of RAC-beta serine/threonine-protein kinase (Homo sapiens) (P31751 whole entry): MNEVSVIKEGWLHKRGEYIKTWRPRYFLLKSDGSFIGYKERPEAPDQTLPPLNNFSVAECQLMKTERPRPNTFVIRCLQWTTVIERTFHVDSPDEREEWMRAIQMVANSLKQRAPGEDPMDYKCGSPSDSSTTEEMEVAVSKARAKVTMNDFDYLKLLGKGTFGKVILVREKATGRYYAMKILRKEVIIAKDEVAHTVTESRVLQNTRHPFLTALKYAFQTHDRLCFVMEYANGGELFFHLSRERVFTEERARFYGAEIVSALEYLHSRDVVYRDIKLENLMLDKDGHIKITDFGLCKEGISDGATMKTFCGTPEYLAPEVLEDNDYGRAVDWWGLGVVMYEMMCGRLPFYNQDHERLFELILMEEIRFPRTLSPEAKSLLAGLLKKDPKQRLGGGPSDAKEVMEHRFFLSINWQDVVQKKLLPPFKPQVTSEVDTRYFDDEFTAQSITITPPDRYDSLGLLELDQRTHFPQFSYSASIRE
Chain of MAP kinase-interacting serine/threonine-protein kinase 1 (Homo sapiens) (Q9BUB5 whole entry, looked up): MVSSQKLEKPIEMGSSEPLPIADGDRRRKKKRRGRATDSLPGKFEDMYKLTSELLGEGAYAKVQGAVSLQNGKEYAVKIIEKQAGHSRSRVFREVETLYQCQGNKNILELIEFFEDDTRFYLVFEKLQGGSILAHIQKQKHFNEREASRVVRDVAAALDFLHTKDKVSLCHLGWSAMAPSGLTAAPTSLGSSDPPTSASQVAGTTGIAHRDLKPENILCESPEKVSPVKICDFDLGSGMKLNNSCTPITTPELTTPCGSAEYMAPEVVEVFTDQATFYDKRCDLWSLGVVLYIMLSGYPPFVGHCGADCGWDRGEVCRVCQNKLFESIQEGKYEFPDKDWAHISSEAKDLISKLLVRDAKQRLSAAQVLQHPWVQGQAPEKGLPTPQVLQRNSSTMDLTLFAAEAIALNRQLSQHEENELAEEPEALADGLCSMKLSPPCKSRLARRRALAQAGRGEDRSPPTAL

SMILES: O=C(N1CCN(c2ncnc3[nH]nc(Cl)c23)CC1)C1(c2ccc(Cl)c(Cl)c2)CCNCC1
- IC50 [1]: 24.3 nM
- inhibition [2]: 94.3%
- inhibition [3]: 47%
- inhibition (Homo sapiens [4]): 99%
- inhibition [5]: inactive
- inhibition [6]: inactive
- inhibition [7]: inactive
- inhibition [8]: inactive
- inhibition [9]: inactive
- inhibition [10]: inactive
- inhibition [11]: 82%
- inhibition [12]: 38%
- inhibition [13]: 93%
- Selectivity ratio (Homo sapiens [14]): > 2
- Selectivity ratio (Homo sapiens [15]): > 2
- inhibition [16]: Active
- inhibition [17]: inactive
- Activity (PC-3 [18]): 90.48%
- Activity (PC-3 [19]): 2.7%
- Activity (PC-3 [20]): 4.82%
- Activity (PC-3 [21]): 2%
- Activity (PC-3 [22]): 3.93%
- Activity (PC-3 [23]): 6.2%
- Activity (PC-3 [24]): 1.76%
- Activity (PC-3 [25]): 68.92%
- Activity (PC-3 [26]): 11.23%
- Activity (PC-3 [27]): 16.6%
- Activity (PC-3 [28]): 3.24%
- half-life (in vitro [29]): > 2.42 h
- CLint scaled (in vitro [30]): < 8.6 mL/min/kg
- microsomal CLint (in vitro [30]): < 9.6 µL/min/mg
- remaining at 1 h (in vitro [31]): 81.8%

From ChEMBL document CHEMBL4257535, “Design, synthesis and biological evaluation of AKT inhibitors bearing a piperidin-4-yl appendant” (Medchemcomm, 2018)
